According to the OPERA property sets (Mansouri et al. 2018):

Details: for log10 BCF / log10 biotransformation half-life (days): fish

Row | Structure (SMILES) | melting point [°C] | boiling point [°C] | other results
1 | CC(=O)OC[C@H]1O[C@@](COC(C)=O)(O[C@H]2O[C@H](COC(C)=O)[C@@H](OC(C)=O)[C@H](OC(C)=O)[C@H]2OC(C)=O)[C@@H](OC(C)=O)[C@@H]1OC(C)=O | 86.5 | – | –
2 | Cc1ccc(Cl)c(Nc2ccccc2C(=O)O)c1Cl | 257 | – | –
3 | CCC(C)=NO | -29.5 | 152 | ready biodegradability: not readily biodegradable; log10 BCF: 0.7; log10 biotransformation half-life (days): -1.33
4 | CC(O)CNC1CCCCC1 (stereo unspecified) | – | – | log10 vapour pressure (mmHg): -1.8
5 | CNC(=S)S | – | – | ready biodegradability: not readily biodegradable
6 | OC1CCOC1 (stereo unspecified) | – | 181 | –
7 | CCOC(=O)c1ccccc1S(=O)(=O)NC(=O)Nc1nc(Cl)cc(OC)n1 | – | – | log10 Koc (L/kg): 2.04
8 | Clc1cc(Cl)cc(-c2c(Cl)c(Cl)cc(Cl)c2Cl)c1 | – | – | log10 Henry constant (atm·m³/mol): -4.54
9 | CN1CCN(C)CC1 | – | 131 | –
10 | Cc1nc2cc(Cl)ccc2s1 | 69 | – | –
11 | Nc1cn[nH]c1 | 81 | – | –
12 | c1ccc2c(c1)c1cccc3ccc4cccc2c4c31 | 178 | – | log10 biodegradation half-life (days): 2.56; log10 vapour pressure (mmHg): -8.24
13 | COc1cc(O)c(C=O)c(OC)c1 | 70 | – | –
14 | O=C(Cl)CCC(=O)Cl | 20 | 193 | log10 vapour pressure (mmHg): -0.432
15 | C=CCCO | – | 114 | –
16 | c1ccc(-c2ccncc2)cc1 | 77.5 | 281 | –
17 | FC(F)(F)C(F)(I)C(F)(F)F | – | 40 | –
18 | CC1(C)CCCCC1 | -33.3 | 120 | log10 vapour pressure (mmHg): 1.36; ready biodegradability: not readily biodegradable
19 | C=CCN(CC=C)CC=C | – | 156 | log10 vapour pressure (mmHg): 0.561; ready biodegradability: not readily biodegradable; log10 BCF: 0.55
20 | CCCCCCC1CCCC(C)C1 (stereo unspecified) | – | – | log10 biotransformation half-life (days): 0.97
21 | Cc1ccc2cnccc2c1 | 85.5 | 266 | –

Row | Structure (SMILES) | melting point [°C] | boiling point [°C] | other results
22 | CCn1cc(C(=O)O)c(=O)c2cnc(N3CCNCC3)nc21 | 254 | – | –
23 | NCCN1CCNCC1 | – | 220 | ready biodegradability: not readily biodegradable
24 | C=C(C)C(=O)OCCOCCOCCOCCOC(=O)C(=C)C | – | 220 | –
25 | OCCOc1cccc2ccccc12 | 45 | – | –
26 | Nc1c(Cl)cc(C(=O)O)cc1Cl | 292 | – | –
27 | CCCCCCCCOC(=O)CCCC | -42.3 | 262 | –
28 | CCOc1ccc([N+](=O)[O-])cc1N | 96.5 | – | –
29 | CCCC(C)C(C)C(C)C (stereo unspecified) | – | 161 | –
30 | CCCCc1ccccc1 | -87.9 | 183 | log10 Koc (L/kg): 3.39; log10 vapour pressure (mmHg): 0.027; ready biodegradability: not readily biodegradable
31 | c1cc2c(c3c1CCCC3)CCCC2 | 16.7 | 295 | log10 biotransformation half-life (days): 0.76
32 | CCOC(=O)C(NC(C)=O)C(=O)OCC | 96.3 | – | –
33 | CCC(=O)O[C@H]1CC[C@@]2(C)C(=CC[C@H]3[C@@H]4CC[C@H](OC(=O)CC)[C@@]4(C)CC[C@@H]32)C1 | 113 | – | –
34 | Cc1ccc(CC#N)cc1 | 18 | 242 | –
35 | O=C1C=CC(=O)C=C1 | 116 | – | log10 vapour pressure (mmHg): -1.05
36 | CN(C)c1ccc(C=Cc2ccccc2)cc1 | 150 | – | –
37 | O=C1CCCC1C1CCCC1 (stereo unspecified) | -13 | 232 | –
38 | Cc1ccncc1 | 3.66 | 145 | log10 Henry constant (atm·m³/mol): -5.22; log10 vapour pressure (mmHg): 0.761
39 | Cl/C=C\Cl | -64.9 | 54.4 | log10 Henry constant (atm·m³/mol): -2.17; log10 Koa: 2.56
40 | C#CCN1C(=O)COc2cc(F)c(N3C(=O)C4=C(CCCC4)C3=O)cc21 | 202 | – | –
41 | CCCCCCCCCc1ccccc1 | -24 | 280 | log10 vapour pressure (mmHg): -2.24
42 | O=C1CSC(=S)N1 | 170 | – | –

Row | Structure (SMILES) | melting point [°C] | boiling point [°C] | other results
43 | CCCCCCCC/C=C\CCCCCCCC(=O)OCC(COC(=O)CCCCCCC/C=C\CCCCCCCC)OC(=O)CCCCCCC/C=C\CCCCCCCC | – | – | ready biodegradability: readily biodegradable
44 | c1ccc(CC2CCCCN2)cc1 (stereo unspecified) | 32 | 268 | –
45 | CC(c1ccccc1)c1ccccc1 | -17.9 | 273 | log10 vapour pressure (mmHg): -1.85
46 | O=S1(=O)CC=CC1 | 64.5 | – | –
47 | NC(=O)Nc1ccc(Oc2ccccc2)cc1 | – | – | log10 Koc (L/kg): 2.56
48 | CC(C)[N+](=O)[O-] | -91.3 | 120 | log10 vapour pressure (mmHg): 1.24; log10 BCF: 0.92; log10 biotransformation half-life (days): -1.2
49 | Clc1ccc(Oc2cc(Cl)cc(Cl)c2)cc1 | – | – | log10 vapour pressure (mmHg): -3.76
50 | Nc1c([N+](=O)[O-])cc(Cl)cc1[N+](=O)[O-] | 147 | – | –
51 | C=C(CC)C(C)CC (stereo unspecified) | – | 112 | –
52 | CCOC(=O)c1cccc(C)c1 | – | 234 | –
53 | CC(C)(C)CC(C)(C)C | -66.5 | 122 | log10 vapour pressure (mmHg): 1.3
54 | CC(C(=O)O)c1ccc(C2CCC/C(=N\O)C2)cc1 (stereo unspecified) | 178 | – | –
55 | CC(=O)Nc1ccccc1[N+](=O)[O-] | 94 | – | –
56 | Clc1ccc(Cl)c(-c2c(Cl)cc(Cl)c(Cl)c2Cl)c1 | – | – | log10 biotransformation half-life (days): 2.23
57 | OCC(F)(F)C(F)(F)C(F)(F)F | – | 95 | log10 vapour pressure (mmHg): 1.52
58 | CC(C)CCOC(=O)c1ccccc1 | – | 261 | log10 vapour pressure (mmHg): -0.848
59 | CCCN1C[C@H](CSC)C[C@@H]2c3cccc4[nH]cc(c34)C[C@H]21 | 208 | – | –
60 | CCCCC/C=C\C/C=C\CCCCCCCC(=O)OC | -35 | – | log10 vapour pressure (mmHg): -5.44
61 | O=C1C=C(Cl)C(=O)O1 | 33 | 196 | –
62 | CC(C)CCCCCOC(=O)C(C)Oc1ccc(Cl)cc1Cl (stereo unspecified) | -37 | – | log10 vapour pressure (mmHg): -5.47
